In PubChem BioAssay (NCI):
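Cultured in 96-well plates, cells were exposed to test compound for 48 hours across five concentrations. The concentration for 50% growth inhibition is given as GI50. Definition used: TGI = concentration required for complete inhibition of growth.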

Key:
Test in all cases: DTP human tumour cell line panel, 48 h
[1] = tested on: RPMI-8226 leukemia
[2] = tested on: IGROV1 ovarian
[3] = tested on: SW-620 colon
[4] = tested on: UO-31 renal
[5] = tested on: SF-539 CNS
[6] = tested on: A498 renal
[7] = tested on: SK-MEL-5 melanoma
[8] = tested on: MDA-MB-231 breast
[9] = tested on: NCI-H460 lung
[10] = tested on: OVCAR-8 ovarian
[11] = tested on: ACHN renal
[12] = tested on: HOP-62 NSCLC
[13] = tested on: NCI-H23 lung
[14] = tested on: CCRF-CEM leukemia
[15] = tested on: DU-145 prostate
[16] = tested on: UACC-62 melanoma
[17] = tested on: HS 578T breast
[18] = tested on: NCI-H522 lung
[19] = tested on: A549 NSCLC
[20] = tested on: MDA-MB-435
[21] = tested on: MOLT-4 leukemia
[22] = tested on: NCI/ADR-RES ovarian
[23] = tested on: SK-MEL-28 melanoma
[24] = tested on: SR leukemia
[25] = tested on: M14 melanoma
[26] = tested on: LOX IMVI melanoma
[27] = tested on: TK-10 renal
[28] = tested on: OVCAR-4 ovarian
[29] = tested on: OVCAR-3 ovarian
[30] = tested on: COLO 205 colon
[31] = tested on: HCC-2998 colon
[32] = tested on: OVCAR-5 ovarian
[33] = tested on: SNB-75 CNS
[34] = tested on: HOP-92 NSCLC
[35] = tested on: SN12C renal
[36] = tested on: SNB-19 CNS
[37] = tested on: U251 CNS
[38] = tested on: MALME-3M melanoma
[39] = tested on: UACC-257 melanoma
[40] = tested on: EKVX NSCLC
[41] = tested on: SF-295 CNS
[42] = tested on: T-47D breast
[43] = tested on: SF-268 CNS
[44] = tested on: HL-60(TB) leukemia
[45] = tested on: CAKI-1 renal
[46] = tested on: NCI-H226 lung
[47] = tested on: HT29 colon
[48] = tested on: MCF7 breast
[49] = tested on: KM12 colon
[50] = tested on: 786-0 renal
[51] = tested on: HCT-116 colon
[52] = tested on: PC-3 prostate
[53] = tested on: SK-OV-3 ovarian
[54] = tested on: HCT-15 colon
[55] = tested on: SK-MEL-2 melanoma
[56] = tested on: RXF 393 renal
[57] = tested on: BT-549 breast

Oc1ccc(NCc2nc3ccccc3[nH]2)cc1
GI50 [1]: 72.8 µM
TGI [1]: > 100 µM
GI50 [2]: 76.4 µM
TGI [2]: > 100 µM
GI50 [3]: > 100 µM
TGI [3]: > 100 µM
GI50 [4]: > 100 µM
TGI [4]: > 100 µM
GI50 [5]: 51.7 µM
TGI [5]: > 100 µM
GI50 [6]: 14.7 µM
TGI [6]: > 100 µM
GI50 [7]: 72.4 µM
TGI [7]: > 100 µM
GI50 [8]: 38.4 µM
TGI [8]: > 100 µM
GI50 [9]: 41.9 µM
TGI [9]: > 100 µM
GI50 [10]: 26.8 µM
TGI [10]: > 100 µM
GI50 [11]: > 100 µM
TGI [11]: > 100 µM
GI50 [12]: 22.4 µM
TGI [12]: 62.2 µM
GI50 [13]: 54.5 µM
TGI [13]: > 100 µM
GI50 [14]: > 100 µM
TGI [14]: > 100 µM
GI50 [15]: 75.9 µM
TGI [15]: > 100 µM
GI50 [16]: 70.5 µM
TGI [16]: > 100 µM
GI50 [17]: 15 µM
TGI [17]: 79.2 µM
GI50 [18]: 27.7 µM
TGI [18]: > 100 µM
GI50 [19]: 51.6 µM
TGI [19]: > 100 µM
GI50 [20]: > 100 µM
TGI [20]: > 100 µM
GI50 [21]: > 100 µM
TGI [21]: > 100 µM
GI50 [22]: > 100 µM
TGI [22]: > 100 µM
GI50 [23]: 38.4 µM
TGI [23]: > 100 µM
GI50 [24]: 53.8 µM
TGI [24]: > 100 µM
GI50 [25]: > 100 µM
TGI [25]: > 100 µM
GI50 [26]: 73.9 µM
TGI [26]: > 100 µM
GI50 [27]: > 100 µM
TGI [27]: > 100 µM
GI50 [28]: 28.7 µM
TGI [28]: > 100 µM
GI50 [29]: 33.8 µM
TGI [29]: > 100 µM
GI50 [30]: 69.1 µM
TGI [30]: > 100 µM
GI50 [31]: 74.2 µM
TGI [31]: > 100 µM
GI50 [32]: > 100 µM
TGI [32]: > 100 µM
GI50 [33]: 18 µM
TGI [33]: 62.5 µM
GI50 [34]: 12.8 µM
TGI [34]: 53 µM
GI50 [35]: 61.4 µM
TGI [35]: > 100 µM
GI50 [36]: 33.6 µM
TGI [36]: > 100 µM
GI50 [37]: 28.2 µM
TGI [37]: > 100 µM
GI50 [38]: 76.3 µM
TGI [38]: > 100 µM
GI50 [39]: 88 µM
TGI [39]: > 100 µM
GI50 [40]: 46.2 µM
TGI [40]: > 100 µM
GI50 [41]: 24.4 µM
TGI [41]: 97.2 µM
GI50 [42]: 31.2 µM
TGI [42]: > 100 µM
GI50 [43]: 35.3 µM
TGI [43]: > 100 µM
GI50 [44]: > 100 µM
TGI [44]: > 100 µM
GI50 [45]: > 100 µM
TGI [45]: > 100 µM
GI50 [46]: > 100 µM
TGI [46]: > 100 µM
GI50 [47]: > 100 µM
TGI [47]: > 100 µM
GI50 [48]: 32.8 µM
TGI [48]: > 100 µM
GI50 [49]: > 100 µM
TGI [49]: > 100 µM
GI50 [50]: 74.5 µM
TGI [50]: > 100 µM
GI50 [51]: 41.8 µM
TGI [51]: > 100 µM
GI50 [52]: 33.6 µM
TGI [52]: > 100 µM
GI50 [53]: 32.1 µM
TGI [53]: > 100 µM
GI50 [54]: > 100 µM
TGI [54]: > 100 µM
GI50 [55]: 22.8 µM
TGI [55]: 98.8 µM
GI50 [56]: 30.3 µM
TGI [56]: > 100 µM
GI50 [57]: 50.1 µM
TGI [57]: > 100 µM
